This note sets out measurements from patent US9499538B2, “Estrogen receptor modulators and uses thereof” (Seragon Pharmaceuticals, Inc., priority 2012, dated 2016).

One assay relates to MCF-7 cells. As to the kind of experiment: Breast Cancer Cell Viability Assays (MCF-7, CellTiter-Glo). To be noted: 5 days' compound exposure; for IC50: Homo sapiens, MCF7, 120 h. It is filed as cell-based. Summed up:
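MCF-7 cells (320/well, RPMI with 10% FBS) exposed for 5 days to an eleven-point semilog series, 0.3–0.000003 μM final. Viability read by CellTiter-Glo luminescence, expressed as background-corrected percent of untreated cells.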

Another assay has as its target T1, ER-α in MCF-7 cells (Homo sapiens, UniProt P03372).
T1 construct: endogenous in cells; host or cells: MCF-7
T1 sequence (P03372 1-595): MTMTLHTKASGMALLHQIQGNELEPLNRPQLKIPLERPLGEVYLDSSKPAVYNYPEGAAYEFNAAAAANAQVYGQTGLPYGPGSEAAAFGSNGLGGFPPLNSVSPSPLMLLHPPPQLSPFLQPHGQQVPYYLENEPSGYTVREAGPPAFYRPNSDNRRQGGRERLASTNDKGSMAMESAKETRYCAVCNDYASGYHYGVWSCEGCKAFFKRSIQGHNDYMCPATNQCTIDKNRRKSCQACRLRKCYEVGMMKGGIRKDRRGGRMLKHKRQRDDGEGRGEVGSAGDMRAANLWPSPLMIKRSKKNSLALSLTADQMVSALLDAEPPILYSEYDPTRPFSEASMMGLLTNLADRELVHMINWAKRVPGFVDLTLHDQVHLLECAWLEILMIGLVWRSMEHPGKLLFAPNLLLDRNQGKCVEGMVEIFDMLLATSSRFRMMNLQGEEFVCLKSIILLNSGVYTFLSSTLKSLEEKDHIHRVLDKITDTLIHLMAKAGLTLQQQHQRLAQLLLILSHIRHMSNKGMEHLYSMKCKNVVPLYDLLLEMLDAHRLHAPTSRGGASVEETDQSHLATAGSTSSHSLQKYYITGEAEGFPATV
Description: Breast Cancer Cell ER-α In Cell Western Assay (SP1). Type of assay: cell-based. To be noted: 4 or 24 hr post compound addition; for Emax: MCF7, SP1 antibody, read-out: ER-α In Cell Western Assay (SP1) Max Response; for DC50: SP1 antibody, read-out: ER-α In Cell Western Assay (SP1) IC50. Summed up:
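MCF-7 cells in charcoal-stripped FBS medium, treated with 11-point semilog dilutions (0.3–0.000003 μM final) for 4 or 24 h. Fixed cells immunostained with SP1 antibody (800 nm) and DRAQ5 DNA (700 nm); ER/DNA ratio expressed as % of untreated cells.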

Molecules are shown by their SMILES.

Consider `O=C(O)/C=C/c1ccc(/C(=C(\c2ccccc2Cl)C2CCC2)c2ccc3[nH]nc(F)c3c2)cn1` [Example 169, (E)-3-(5-((Z)-2-(2-Chlorophenyl)-2-cyclobutyl-1-(3-fluoro-1H-indazol-5-yl)vinyl)pyridin-2-yl)acrylic acid], for which, in the assay on MCF-7 cells, the “MCF7 Viability Assay Max Response” value is “++ (++ = a single % value ≧ 40%)” and the IC50 (in general, the midpoint of a concentration-inhibition curve) was no more than 100 nM. At ER-α in MCF-7 cells, the Emax is no less than 40% and the DC50 was no more than 100 nM.
Take `CC/C(=C(/c1ccc(/C=C/c2nnn[nH]2)cc1)c1ccc2[nH]nc(F)c2c1)c1ccc(F)cc1Cl` [Example 170, 5-((E)-1-(4-((E)-2-(2H-Tetrazol-5-yl)vinyl)phenyl)-2-(2-chloro-4-fluorophenyl)but-1-en-1-yl)-3-fluoro-1H-indazole]: in the assay with MCF-7 cells, the “MCF7 Viability Assay Max Response” value was “++ (++ = a single % value ≧ 40%)” and the IC50 was no more than 100 nM. In addition, on ER-α in MCF-7 cells, the Emax is no less than 40% and the DC50 is no more than 100 nM.
Regarding `CC/C(=C(/c1ccc(/C=C/c2nnn[nH]2)cc1)c1ccc2[nH]nc(F)c2c1)c1ccncc1Cl` [Example 171, 5-((E)-1-(4-((E)-2-(2H-Tetrazol-5-yl)vinyl)phenyl)-2-(3-chloropyridin-4-yl)but-1-en-1-yl)-3-fluoro-1H-indazole], in the assay with MCF-7 cells, the “MCF7 Viability Assay Max Response” value was “++ (++ = a single % value ≧ 40%)” and the IC50 is no more than 100 nM. Moreover, at ER-α in MCF-7 cells, the Emax was no less than 40% and the DC50 is no more than 100 nM.
On to `Fc1n[nH]c2ccc(/C(=C(/c3ccncc3Cl)C3CCC3)c3ccc(/C=C/c4nnn[nH]4)cc3)cc12` [Example 172, 5-((E)-1-(4-((E)-2-(2H-Tetrazol-5-yl)vinyl)phenyl)-2-(3-chloropyridin-4-yl)-2-cyclobutylvinyl)-3-fluoro-1H-indazole], for which, in the assay on MCF-7 cells, the “MCF7 Viability Assay Max Response” value was “++ (++ = a single % value ≧ 40%)” and the IC50 was no more than 100 nM. At ER-α in MCF-7 cells, the Emax is no less than 40% and the DC50 was no more than 100 nM.
As for `Fc1ccc(/C(=C(\c2ccc(/C=C/c3nnn[nH]3)cc2)c2cccc3[nH]ncc23)C2CCC2)c(Cl)c1` [Example 173, 4-((E)-1-(4-((E)-2-(2H-Tetrazol-5-yl)vinyl)phenyl)-2-(2-chloro-4-fluorophenyl)-2-cyclobutylvinyl)-1H-indazole], in the assay with MCF-7 cells, the “MCF7 Viability Assay Max Response” value was “++ (++ = a single % value ≧ 40%)” and the IC50 is no more than 100 nM. For the same compound, on ER-α in MCF-7 cells, the Emax is no less than 40% and the DC50 was no more than 100 nM.
In the case of `Fc1n[nH]c2ccc(/C(=C(/c3ccccc3)C3CCC3)c3ccc(/C=C/c4nnn[nH]4)cc3)cc12` [Example 174, 5-((E)-1-(4-((E)-2-(1H-Tetrazol-5-yl)vinyl)phenyl)-2-cyclobutyl-2-phenylvinyl)-3-fluoro-1H-indazole], in the assay on MCF-7 cells, the “MCF7 Viability Assay Max Response” value is “++ (++ = a single % value ≧ 40%)” and the 50% inhibitory concentration (IC50) was no more than 100 nM. For the same compound, on ER-α in MCF-7 cells, the Emax was no less than 40% and the DC50 was no more than 100 nM.
Take `Fc1ccc(/C(=C(\c2ccc(/C=C/c3nnn[nH]3)cc2)c2ccc3scnc3c2)C2CCC2)c(Cl)c1` [Example 175, 5-((E)-1-(4-((E)-2-(2H-Tetrazol-5-yl)vinyl)phenyl)-2-(2-chloro-4-fluorophenyl)-2-cyclobutylvinyl)benzo[d]thiazole]: in the assay on MCF-7 cells, the “MCF7 Viability Assay Max Response” value is listed as “++ (++ = a single % value ≧ 40%)” and the IC50 is no more than 100 nM. At ER-α in MCF-7 cells, the Emax was no less than 40% and the DC50 is no more than 100 nM.
For `Clc1cnccc1/C(=C(\c1ccc(/C=C/c2nnn[nH]2)cc1)c1ccc2scnc2c1)C1CCC1` [Example 176, 5-((E)-1-(4-((E)-2-(2H-Tetrazol-5-yl)vinyl)phenyl)-2-(3-chloropyridin-4-yl)-2-cyclobutylvinyl)benzo[d]thiazole], in the assay on MCF-7 cells, the “MCF7 Viability Assay Max Response” value is given as “++ (++ = a single % value ≧ 40%)” and the IC50 was no more than 100 nM. Moreover, at ER-α in MCF-7 cells, the Emax is no less than 40% and the DC50 is no more than 100 nM.
Turning to `Cc1cnccc1/C(=C(\c1ccc(/C=C/c2nnn[nH]2)cc1)c1ccc2scnc2c1)C1CCC1` [Example 177, 5-((E)-1-(4-((E)-2-(2H-Tetrazol-5-yl)vinyl)phenyl)-2-cyclobutyl-2-(3-methylpyridin-4-yl)vinyl)benzo[d]thiazole], in the assay on MCF-7 cells, the “MCF7 Viability Assay Max Response” value is recorded as “++ (++ = a single % value ≧ 40%)” and the IC50 is no more than 100 nM. For the same compound, on ER-α in MCF-7 cells, the Emax was no less than 40% and the DC50 was no more than 100 nM.
Turning to `Fc1ccc(/C(=C(\c2ccc(/C=C/c3nnn[nH]3)cc2)c2ccc3nccn3c2)C2CCC2)c(Cl)c1` [Example 178, 6-((E)-1-(4-((E)-2-(2H-Tetrazol-5-yl)vinyl)phenyl)-2-(2-chloro-4-fluorophenyl)-2-cyclobutylvinyl)imidazo[1,2-a]pyridine], in the assay on MCF-7 cells, the “MCF7 Viability Assay Max Response” value is reported as “++ (++ = a single % value ≧ 40%)” and the IC50 was no more than 100 nM. Besides, at ER-α in MCF-7 cells, the Emax was no less than 40% and the DC50 was no more than 100 nM.
For `CC/C(=C(/c1ccc(/C=C/C(=O)NCCO)cc1)c1ccc2[nH]ncc2c1)c1ccc(F)cc1Cl` [Example 179, (E)-3-(4-((E)-2-(2-Chloro-4-fluorophenyl)-1-(1H-indazol-5-yl)but-1-en-1-yl)phenyl)-N-(2-hydroxyethyl)acrylamide], in the assay on MCF-7 cells, the “MCF7 Viability Assay Max Response” value is “++ (++ = a single % value ≧ 40%)” and the IC50 was no more than 100 nM. Also, on ER-α in MCF-7 cells, the Emax is no less than 40% and the DC50 was no more than 100 nM.
Regarding `Cc1cscc1/C(=C(\c1ccc(/C=C/C(=O)NCCO)cc1)c1ccc2scnc2c1)C1CCC1` [Example 180, (E)-3-(4-((E)-1-(Benzo[d]thiazol-5-yl)-2-cyclobutyl-2-(4-methylthiophen-3-yl)vinyl)phenyl)-N-(2-hydroxyethyl)acrylamide], in the assay on MCF-7 cells, the “MCF7 Viability Assay Max Response” value was “++ (++ = a single % value ≧ 40%)” and the IC50 was no more than 100 nM. Besides, on ER-α in MCF-7 cells, the Emax is no less than 40% and the DC50 is no more than 100 nM.
As to `Cc1cscc1/C(=C(\c1ccc(/C=C/C(=O)NCCO)cc1)c1ccc2[nH]nc(F)c2c1)C1CCC1` [Example 181, (E)-3-(4-((E)-2-Cyclobutyl-1-(3-fluoro-1H-indazol-5-yl)-2-(4-methylthiophen-3-yl)vinyl)phenyl)-N-(2-hydroxyethyl)acrylamide], in the assay on MCF-7 cells, the “MCF7 Viability Assay Max Response” value is given as “++ (++ = a single % value ≧ 40%)” and the IC50 was no more than 100 nM. On ER-α in MCF-7 cells, the Emax was no less than 40% and the DC50 was no more than 100 nM.
For `O=C(/C=C/c1ccc(/C(=C(\c2ccccc2)C2CCC2)c2ccc3[nH]nnc3c2)cc1)NCCO` [Example 182, (E)-3-(4-((E)-1-(1H-Benzo[d][1,2,3]triazol-5-yl)-2-cyclobutyl-2-phenylvinyl)phenyl)-N-(2-hydroxyethyl)acrylamide], in the assay with MCF-7 cells, the “MCF7 Viability Assay Max Response” value is listed as “++ (++ = a single % value ≧ 40%)” and the IC50 is no more than 100 nM. Moreover, at ER-α in MCF-7 cells, the Emax was no less than 40% and the DC50 is no more than 100 nM.
With `O=C(/C=C/c1ccc(/C(=C(\c2ccccc2)C2CCC2)c2cccc3[nH]ncc23)cc1)NCCO` [Example 183, (E)-3-(4-((E)-2-Cyclobutyl-1-(1H-indazol-4-yl)-2-phenylvinyl)phenyl)-N-(2-hydroxyethyl)acrylamide], in the assay on MCF-7 cells, the “MCF7 Viability Assay Max Response” value is given as “++ (++ = a single % value ≧ 40%)” and the IC50 was no more than 100 nM. At ER-α in MCF-7 cells, the Emax is no less than 40% and the DC50 is no more than 100 nM.
Turning to `CC/C(=C(/c1ccc(/C=C/C(=O)NC)cc1)c1ccc2scnc2c1)c1ccc(F)cc1Cl` [Example 184, (E)-3-(4-((E)-1-(Benzo[d]thiazol-5-yl)-2-(2-chloro-4-fluorophenyl)but-1-en-1-yl)phenyl)-N-methylacrylamid], in the assay with MCF-7 cells, the “MCF7 Viability Assay Max Response” value is “++ (++ = a single % value ≧ 40%)” and the IC50 was no more than 100 nM. In addition, at ER-α in MCF-7 cells, the Emax was no less than 40% and the DC50 was no more than 100 nM.
For the compound `CC/C(=C(/c1ccc(/C=C/C(=O)Nc2nccs2)cc1)c1ccc2[nH]ncc2c1)c1ccc(F)cc1Cl` [Example 185, (E)-3-(4-((E)-2-(2-Chloro-4-fluorophenyl)-1-(1H-indazol-5-yl)but-1-en-1-yl)phenyl)-N-(thiazol-2-yl)acrylamide], in the assay with MCF-7 cells, the “MCF7 Viability Assay Max Response” value is given as “++ (++ = a single % value ≧ 40%)” and the IC50 was no more than 100 nM. Moreover, on ER-α in MCF-7 cells, the Emax is no less than 40% and the DC50 was no more than 100 nM.
In the case of `O=C(/C=C/c1ccc(/C(=C(\c2ccc(F)cc2Cl)C2CCC2)c2ccc3[nH]nc(F)c3c2)cc1)Nc1nccs1` [Example 186, (E)-3-(4-((E)-2-(2-Chloro-4-fluorophenyl)-2-cyclobutyl-1-(3-fluoro-1H-indazol-5-yl)vinyl)phenyl)-N-(thiazol-2-yl)acrylamide], in the assay on MCF-7 cells, the “MCF7 Viability Assay Max Response” value is reported as “++ (++ = a single % value ≧ 40%)” and the IC50 was no more than 100 nM. On ER-α in MCF-7 cells, the Emax was no less than 40% and the DC50 was no more than 100 nM.
